Numbers after ± are expanded uncertainties.
Settings: Liquid, Closed cell (Static) method

Compound | vapor or sublimation pressure (233.17 K) | vapor or sublimation pressure (243.24 K) | vapor or sublimation pressure (253.22 K) | vapor or sublimation pressure (263.24 K) | vapor or sublimation pressure (273.18 K) | vapor or sublimation pressure (233.19 K) | vapor or sublimation pressure (243.22 K) | vapor or sublimation pressure (253.21 K) | vapor or sublimation pressure (263.21 K) | vapor or sublimation pressure (273.19 K) | vapor or sublimation pressure (243.23 K) | vapor or sublimation pressure (253.14 K) | vapor or sublimation pressure (263.2 K)
FC(F)(F)C1(F)OC1(F)F (stereo not given) [2,2,3-trifluoro-3-(trifluoromethyl)oxirane] | 58 ± 10 kPa | 95 ± 10 kPa | 145 ± 10 kPa | 216 ± 10 kPa | 310 ± 10 kPa | – | – | – | – | – | – | – | –
O=C=O [carbon dioxide] | – | – | – | – | – | 1009 ± 12 kPa | 1432 ± 12 kPa | 1970 ± 13 kPa | 2645 ± 15 kPa | 3473 ± 16 kPa | – | – | –
FC(F)=C(F)C(F)(F)F [hexafluoropropene] | 64 ± 10 kPa | – | – | – | – | – | – | – | – | 334 ± 10 kPa | 102 ± 10 kPa | 157 ± 10 kPa | 233 ± 10 kPa

Reference: the NIST ThermoML archive (doi:10.1016/j.fluid.2016.05.004)
